# In patent US11903912B2, “Composition for preventing and treating breast cancer including selenopsammaplin A as active ingredients” (Seoul National University R & DB Foundation, priority 2019, dated 2024):
# Key:
# DOT1L = molecular target: T1, DOT1L (Homo sapiens, UniProt Q8TEK3); assay: Target selectivity for H3K79 residue in MDA-MB-231 cell line, western blot; format: cell-based
# T1 construct: based on the finding that DOT1L was overexpressed in the breast cancer cell line; endogenous in cells
# T1 sequence (Q8TEK3 whole entry): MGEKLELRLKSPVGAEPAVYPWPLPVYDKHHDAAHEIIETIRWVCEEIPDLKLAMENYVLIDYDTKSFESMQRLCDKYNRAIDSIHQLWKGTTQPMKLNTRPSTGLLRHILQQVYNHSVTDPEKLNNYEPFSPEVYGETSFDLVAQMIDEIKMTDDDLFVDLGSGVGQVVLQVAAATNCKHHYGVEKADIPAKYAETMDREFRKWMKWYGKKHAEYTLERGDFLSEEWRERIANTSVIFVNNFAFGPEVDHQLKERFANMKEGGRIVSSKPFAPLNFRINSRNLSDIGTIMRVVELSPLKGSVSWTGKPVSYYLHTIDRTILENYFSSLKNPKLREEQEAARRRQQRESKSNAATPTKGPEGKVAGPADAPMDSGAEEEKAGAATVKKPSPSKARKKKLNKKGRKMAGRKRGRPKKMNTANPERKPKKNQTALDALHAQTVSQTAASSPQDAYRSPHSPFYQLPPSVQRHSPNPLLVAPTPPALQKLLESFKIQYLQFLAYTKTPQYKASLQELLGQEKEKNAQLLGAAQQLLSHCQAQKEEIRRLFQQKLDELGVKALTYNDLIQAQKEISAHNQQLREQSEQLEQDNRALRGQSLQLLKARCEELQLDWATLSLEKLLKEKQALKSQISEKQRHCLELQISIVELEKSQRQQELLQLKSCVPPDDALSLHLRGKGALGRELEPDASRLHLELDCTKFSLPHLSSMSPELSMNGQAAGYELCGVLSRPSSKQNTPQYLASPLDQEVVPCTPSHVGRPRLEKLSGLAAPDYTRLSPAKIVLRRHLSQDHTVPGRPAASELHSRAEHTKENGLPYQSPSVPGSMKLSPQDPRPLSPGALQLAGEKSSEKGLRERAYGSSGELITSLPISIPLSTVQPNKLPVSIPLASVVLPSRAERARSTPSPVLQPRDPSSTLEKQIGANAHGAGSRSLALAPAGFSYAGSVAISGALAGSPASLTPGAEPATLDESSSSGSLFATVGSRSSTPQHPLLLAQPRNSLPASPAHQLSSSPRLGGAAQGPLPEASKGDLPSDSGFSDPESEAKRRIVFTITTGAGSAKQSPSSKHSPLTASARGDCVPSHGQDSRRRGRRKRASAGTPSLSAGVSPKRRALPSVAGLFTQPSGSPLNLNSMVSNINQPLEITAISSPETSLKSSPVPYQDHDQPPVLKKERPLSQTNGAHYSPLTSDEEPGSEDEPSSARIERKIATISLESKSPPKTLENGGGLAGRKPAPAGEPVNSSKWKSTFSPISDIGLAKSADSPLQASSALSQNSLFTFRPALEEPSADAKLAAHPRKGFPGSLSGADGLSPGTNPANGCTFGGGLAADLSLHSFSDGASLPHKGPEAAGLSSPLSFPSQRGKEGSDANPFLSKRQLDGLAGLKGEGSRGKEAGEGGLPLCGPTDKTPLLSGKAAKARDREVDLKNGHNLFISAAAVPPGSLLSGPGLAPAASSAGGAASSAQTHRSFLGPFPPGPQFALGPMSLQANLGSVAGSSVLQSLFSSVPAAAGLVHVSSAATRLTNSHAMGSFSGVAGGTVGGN
# Description: Compound 2 (X=ph) was selected from among selenopsammaplin A and the derivatives thereof, and in order to confirm the selectivity thereof for the H3K79 residue, which is an intracellular DOT1L target, an experiment was performed as follows. The triple-negative breast cancer cell line MDA-MB-231 was spread at a concentration of 2×10^6 cells/well on a DMEM medium containing 10% FBS in a 6-well plate, cultured at 37° C. for 24 hours under a 5% CO2 condition, and then washed twice with phosphate-buffered saline (PBS). Attached cells were recovered and washed twice with PBS, and then boiling 2× sample loading buffer (250 mM Tris-HCl (pH 6.8), 4% SDS, 10% glycerol, 0.006% bromophenol blue, 2% β-mercaptoethanol, 50 mM sodium fluoride, and 5 mM sodium orthovanadate) was added thereto to disrupt the cells and the cells were left at 100° C. for 10 minutes. After cooling, the cells were stored at […] and […] at 37° C. immediately before use in protein quantification and electrophoresis. 10 μg of proteins were electrophoresed at 100 V for 2 hours using a 12% SDS-polyacrylamide gel (#456-1036, Bio-Rad, Hercules, Calif.). […] These were quantified using ImageJ software and the results thereof are illustrated in FIG. 4B.
# [1] = tested on: MDA-MB231 human breast cancer cells; assay: SRB cytotoxicity test, MDA-MB231; format: cell-based; conditions: SRB assay, cultured 3 days
# Description: A cytotoxicity test was performed using synthesized selenopsammaplin A and derivatives thereof (Lee S K et al […] Chem Biol Interact 115:215-28).
# The cytotoxicity test was performed on a total of five representative cancer cell lines. The cytotoxicity of each compound was measured using an SRB assay method (human lung cancer cells, A549; human colon cancer cells, HCT116; human breast cancer cells, MDA-MB231; human liver cancer cells, SK-HEP-1; human gastric cancer cells, SNU638).
# Each cell line was sub-cultured once or twice using Roswell Park Memorial Institute (RPMI) medium 1640 (RPMI 1640) or Dulbecco's Modified Eagle's Medium (DMEM) containing 10% fetal bovine serum (FBS) inactivated by heat, 100 units/mL of penicillin, 100 μg/mL of streptomycin, and 250 ng/mL of amphotericin B at 37° C. for 1 week under a 5% CO2 condition. All cells were […] in liquid nitrogen, and then passaged three or more times to be used in the experiment. The effects of compounds on cell growth were measured using a sulforhodamine B (SRB) method (Lee et al (1998) Chemico-Biol Interact 115:215-228).
# Specifically, each human cancer cell line used in the present invention was sub-cultured in an RPMI medium containing 10% FBS, 1% PSF, and the like, and 10 μl of a sample dissolved in 10% DMSO and 190 μl (4-5×10^4 cells/ml) of the cell suspension were added to each well of a 96-well plate and cultured for 3 days. 190 μl of the cell suspension was added to at least 16 wells and cultured for 30 minutes, and used as a zero-day control. The cultured cells were fixed with 10% trichloroacetic acid (TCA) and then stained with an SRB solution, and the staining solution was dissolved with 10 mM Tris-base, and then absorbance at 515 nm was measured. Using the case of culturing in 10% DMSO as a control, cell viability according to each test material treatment was measured using Equation 1 below. Etoposide was used as a positive control. % Viability=(OD(sample)−OD(0-day))/(OD(10% DMSO)−OD(0-day))×100 [Equation 1]
# Assuming that a control not-treated with the sample was set at 100%, the values of sample-treated groups were expressed as percentage with respect to the control, and each test material treatment results were obtained as the mean±SEM of two or three tests. The IC50 value is the concentration of the test material for a 50% survival rate.
structure (smiles),measurement,setting,value
"O=C(NCC[Se][Se]CCNC(=O)/C(Cc1ccccc1)=N/O)/C(Cc1ccccc1)=N/O [Compound 2, (2E,2′E)-N,N′-(diselenediylbis(ethane-2,1-diyl))bis(2-(hydroxyimino)-3-phenylpropanamide)]",methylation of other histone 3 residues,"DOT1L; MDA-MB-231, H3K4me2, H3K27me2, H3K36me2 western blot, FIG. 4",without changing
same,methylation of H3K79 (residue 79),"DOT1L; MDA-MB-231, H3K79me2 western blot, FIG. 4, compared to psammaplin A",specifically suppressed
same,IC50,[1],60 nM
